Measurements from ChEMBL document CHEMBL2331339.
Calls of active or inactive are those of the source. The rule behind the calls is not given here.

Columns and labels:
[1] = test system: Staphylococcus aureus; assay: Inhibition of alpha-hemolysin protein expression in Staphylococcus aureus 8325-4 at 4 to 256 ug/ml by Western blot analysis; assay type: functional, organism-based
[2] = test system: Staphylococcus aureus; assay: Antimicrobial activity against Staphylococcus aureus at 1024 ug/ml by broth microdilution method; assay type: functional, organism-based
[3] = target: T1, Alpha-hemolysin (Staphylococcus aureus) (UniProt P09616); assay: Binding affinity to wild type Staphylococcus aureus alpha-hemolysin by fluorescence quenching method
T1 sequence (whole entry): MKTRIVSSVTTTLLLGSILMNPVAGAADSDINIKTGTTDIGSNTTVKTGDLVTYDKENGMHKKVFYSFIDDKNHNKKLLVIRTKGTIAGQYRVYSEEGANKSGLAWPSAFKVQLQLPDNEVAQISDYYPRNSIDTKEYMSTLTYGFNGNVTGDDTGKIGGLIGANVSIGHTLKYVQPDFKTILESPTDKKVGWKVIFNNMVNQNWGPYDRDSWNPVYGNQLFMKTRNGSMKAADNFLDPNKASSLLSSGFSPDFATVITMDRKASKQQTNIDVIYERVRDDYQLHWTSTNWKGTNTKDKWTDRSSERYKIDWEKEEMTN

[4] = target: T1, Alpha-hemolysin (Staphylococcus aureus); assay: Inhibition of deoxycholate-induced wild type Staphylococcus aureus alpha-hemolysin oligomerization at 16 ug/ml by SDS-PAGE analysis

`Cc1c(O)c(C)c2c(c1O)C(=O)CC(c1ccc(O)c(O)c1)O2` (centres undefined) was tested, and the inhibition [1] was “inactive”, the Activity [2] was “inactive” and the Activity [3] was “Active”. For the same compound, the inhibition [4] was “Active”.
